According to patent US20200215029A1, “APPLICATION OF AMD3100 IN PREPARATION OF DRUG FOR TREATING AND/OR PREVENTING CACHEXIA AND PHARMACEUTICAL COMPOSITION THEREOF” (SUN YAT-SEN UNIVERSITY, priority 2017, published 2020):

Experiments:
[1] = system: muscle and fat-derived Nestin+ cells; assay: Transwell migration of mouse Nestin+ cells promoted by Cxcl12; type: cell-based; conditions: 1 μmol/ml Cxcl12 under the Transwell chamber (8 μm pore), 24 hours, versus control without Cxcl12
Experimental: The Corning Transwell chamber (8 μm pore size) was placed on a 24-well plate, and muscle and fat-derived Nestin+ cells (see example 1) cultured in vitro were inoculated in the Transwell chamber with 2×10^4 cells/well, and cultured in a 5% CO2 and 37° C. incubator. Each well was added with 500 μl of DMEM/low sugar under the Transwell chamber. The experimental group contained 1 μmol/ml Cxcl12 factors, while Cxcl12 factors were not added in control group. After 24 hours, the chamber was taken out, the cells inside the chamber were wiped out with a cotton swab, and the chamber was washed gently and immobilized and rinsed twice with anhydrous alcohol; the chambers in various groups were marked, and erected on the abandoned well plate, and crystal violet dye solution was added into each well for incubate at room temperature for 15 min; excessive staining solution was washed away. The quantity of migrated cells in each group was measured under the inverted microscope. Five fields (400 times) were randomly selected to calculate the quantity of migrated cells in each group under the microscope with 3 repeated wells in each group. The average value of the results was calculated. It can be seen from FIG. 6 that Cxcl 12 can promote the migration of mouse Nestin+ cells.

Nestin+ cells = conditions: AMD3100 0.15 mg/kg body weight/day by Alzet slow-release pump, tumor-bearing mice
Experimental: 8-week-old C57 BL/6 male mice having no more than […] of weight were taken and divided into control group, cachexia group (LLC), and AMD3100 group (LLC+AMD3100).
Control group: no treatment.
Cachexia group: 4×10^6 LLC was transplanted subcutaneously into the groin of mice. After 7 days, mice were anesthetized with 100 μL of 10% chloral hydrate, and Alzet slow release pumps (model: 1004) were implanted subcutaneously on the back of mice. The normal saline was contained in the pump.
AMDd3100 group: 4×10^6 LLC was transplanted subcutaneously into the groin of mice. After 7 days, mice were anesthetized with 100 μL of 10% chloral hydrate, and an Alzet slow-release pump (model: 1004) was implanted subcutaneously on its back, and AMD3100 was contained in the pump. The use amount of mice AMD3100 was 0.15 mg/kg weight/day. After 14 days of installation of the slow-release pump, the mice were killed, and the muscle and fat tissue sections were taken for immunofluorescence staining, or RNA reverse transcription for fluorescence quantitative PCR was carried out by extracting RNA reverse transcription to detect the expression of Nestin.

With “Cxcl 12: chemokine Cxcl12 factor added under the Transwell chamber; highly expressed in mouse tumor” the “migration of mouse Nestin+ cells (quantity of migrated cells)” value [1] was “promote” and the “migration of mouse Nestin+ cells (quantity of migrated cells)” value ([1]; listed as Cxcl12) was “promoted”.

With `c1cc(CN2CCCNCCNCCCNCC2)ccc1CN1CCCNCCNCCCNCC1` [AMD3100, 1,1′-[1,4-phenylenebis(methylene)]-di-1,4,8,11-tetraazacyclotetradecane] the “migration of Nestin+ cells from muscles and fats toward tumor” value (Nestin+ cells) was “successfully inhibit”.
